Values joined by “and” are separate entries in the source; they are usually repeats but may differ in a detail not shown here. Equal values may be shown once.
Tests used:
[1] = Influence of additives on sludge pH; assay type: physicochemical; settings: for sludge pH: 0.5 g of each additive on about 5 g sludge
Protocol: The influence of different additives on the sludge pH was also evaluated.
Influence of Additives on Sludge PH
Treatments with urea, CaSO4, CaO

[2] = Odor reduction of municipal sludge, headspace GC-MS and odor; design: reducing odor / Relative reduction of peak area: concentration or dose not given beside the values; settings: for reducing odor: oxidizing agents, general statement
Protocol: Effectiveness of the treatments was evaluated through the GC-MS analysis of the treated and untreated sludge. Sludge (5.0 g) was placed into a 44 ml vial. After heating to 60.0° C. for 5.0 minutes a probe of gas was taken from the vial (0.5 ml) and injected into the GC-MS.
Hewlett-Packard (HP) GC 5890 coupled with an HP 5971 mass-spectrometer. The system incorporates an electron beam as an ion source. Ions are filtered through a glass with silver-coated quadruples.
A DB5MS capillary chromatographic column is used and the MS is tuned with PFTBA in a Scan Mode (tune file: BFB.U).
For further characterization the peak area of the 94-ion was selected. The calibration was performed using dimethyldisulfide. A calibration curve is presented in the attached data.
In the first series, 6.00 g (±0.05) of the sludge with the addition of 10.0 ml of distilled water was used. For the treatment, we used potential oxidizers such as KNO3 and H2SO4 in different combinations.
In the second series we used 5.00 g (±0.01) of the sludge with no dilution. For the treatment we used additions of hydrogen peroxide (30%) −0.5 ml, sulfuric acid (98%), −0.5 ml, a combination of hydrogen peroxide and 0.5 ml and sulfuric acid 0. ml, ammonia (54%) −0.5ml, calcium hypochlorite −0.5 g.
The effectiveness of the additions is evaluated through decreasing the area of 94-ion signal with retention time around 1.94 minutes. We also investigated the influence of time.
The samples of the sludge (approximately 5.0 g) were placed into the vials and treated with additions of CaOCl2 at a temperature of 60.0° C.
The reproducibility of the treatment with calcium hypochlorite Ca(OCl)2 (CHC) on sludge was investigated. In all experiments, 5.0 g of sludge in a special vial was treated with an addition of percent of weight of odor reducer (0.05 g). After heating to 60.0° C. for 5.0 minutes, a sample of vapor over the sludge was taken and injected into the GC/MS. Total Ion Chromatograph signal with retention time […] were used for evaluation of the treatment corresponding to dimethylsulfide).

**Q.** Which results are given for O=S(=O)([O-])[O-].[Ca+2] [CaSO4, Calcium sulfate]?
**A.** effect on sludge pH [1]: does not change the sludge pH; sludge pH [1]: 6.3 and 6.25

**Q.** Which “sludge pH” value [1] does the source give for NC(N)=O [Urea] here?
**A.** Its value is 8.32 and 8.45.

**Q.** With [K+].[O-]Cl [potassium hypochlorite] as the compound, how does the reducing odor [2] read?
**A.** Its reducing odor is 98%.

**Q.** For [O]=[Ca] [CaO, calcium oxide], which “sludge pH” value [1] is on record?
**A.** Its value is 11.5 and 11.65.

**Q.** What about the “sludge pH” value ([1]; listed as calcium oxide) of the same compound?
**A.** The value was 11.8.

**Q.** For [Ca+2].[O-]Cl.[O-]Cl [CaOCl2, calcium hypochlorite], which “Relative reduction of peak area” value ([2]; against untreated sludge 376025) is on record?
**A.** The value was 97.98% and 96.16% and 98.54% and 96.59% and 98.86% and 99.03% and 99.17% and 99.47%.

**Q.** What about the “Average Relative Reduction of the peak area” value ([2]; eight replicates, confidence interval 95%) of the same compound?
**A.** Its value is 98.23% and 98.23±0.85%.

**Q.** And the reducing odor [2]?
**A.** Its reducing odor is 98%.

**Q.** What about the “effect on sludge pH” value [1] of the same compound?
**A.** Its value is “does not affect the sludge pH”.

Source: patent publication US20040177664A1, “Production of a high quality organic-based fertilizer” (priority 2003, published 2004)
